Tests used:
Type in all cases: in vivo
Details in all cases: evaluated after 13 days
[1] = system: Amaranthus retoflexus (AMARE); assay: Pre-emergence herbicidal glasshouse test (Table B1)
How it was run: (§1)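 Potted plants, glasshouse 24/16° C, 14 h light, 65% RH; spray at 1 d (pre) or 8 d (post) post-sowing; 500 g/h default; acetone/water 50:50 + 0.5% Tween 20. Damage read at 13 d, scored 1–5 (5=80-100%, 1=0-19%).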

[2] = system: Abutilon theophrasti (ABUTH); assay: as above
How it was run: as §1

[3] = system: Echinochloa crus-galh (ECHCG); assay: as above
How it was run: as §1

[4] = system: Setaria faberi (SETFA); assay: as above
How it was run: as §1

[5] = system: Ipomoea hederacea (IPOHE); assay: as above
How it was run: as §1

[6] = system: Amaranthus retoflexus (AMARE); assay: Post-emergence herbicidal glasshouse test (Table B1)
How it was run: as §1

[7] = system: Abutilon theophrasti (ABUTH); assay: as above
How it was run: as §1

[8] = system: Echinochloa crus-galh (ECHCG); assay: as above
How it was run: as §1

[9] = system: Setaria faberi (SETFA); assay: as above
How it was run: as §1

[10] = system: Ipomoea hederacea (IPOHE); assay: as above
How it was run: as §1

SMILES | PRE Application AMARE, percentage damage on five-point scale ([1]; applied at 500 g/h) | PRE Application ABUTH, percentage damage on five-point scale ([2]; applied at 500 g/h) | PRE Application ECHCG, percentage damage on five-point scale ([3]; applied at 500 g/h) | PRE Application SETFA, percentage damage on five-point scale ([4]; applied at 500 g/h) | PRE Application IPOHE, percentage damage on five-point scale ([5]; applied) | POST Application AMARE, percentage damage on five-point scale ([6]; applied at 500 g/h) | POST Application ABUTH, percentage damage on five-point scale ([7]; applied at 500 g/h) | POST Application ECHCG, percentage damage on five-point scale ([8]; applied at 500 g/h) | POST Application SETFA, percentage damage on five-point scale ([9]; applied at 500 g/h) | POST Application IPOHE, percentage damage on five-point scale ([10]; applied at 500 g/h) | PRE Application AMARE, percentage damage on five-point scale ([1]; applied at 125 g/ha) | PRE Application ABUTH, percentage damage on five-point scale ([2]; applied at 125 g/ha) | PRE Application ECHCG, percentage damage on five-point scale ([3]; applied at 125 g/ha) | PRE Application SETFA, percentage damage on five-point scale ([4]; applied at 125 g/ha) | PRE Application IPOHE, percentage damage on five-point scale ([5]; applied at 125 g/ha) | POST Application AMARE, percentage damage on five-point scale ([6]; applied at 125 g/ha) | POST Application ABUTH, percentage damage on five-point scale ([7]; applied at 125 g/ha) | POST Application ECHCG, percentage damage on five-point scale ([8]; applied at 125 g/ha) | POST Application SETFA, percentage damage on five-point scale ([9]; applied at 125 g/ha) | POST Application IPOHE, percentage damage on five-point scale ([10]; applied at 125 g/ha)
CCC(=O)Nc1c(OC(F)(F)C(F)F)ccc(C(=O)Nc2nnnn2CC)c1Cl [Compound 1.103] | 5 (5=80-100%) | 4 (4=60-79%) | 3 (3=40-59%) | 1 (1=0-19%) | 1 (1=0-19%) | 5 (5=80-100%) | 5 (5=80-100%) | 5 (5=80-100%) | 5 (5=80-100%) | 5 (5=80-100%) |  |  |  |  |  |  |  |  |  | 
CC(=O)Nc1c(OC(F)(F)F)ccc(C(=O)Nc2nnc(C)o2)c1Cl [Compound 2.002] | 1 (1=0-19%) | 3 (3=40-59%) | 1 (1=0-19%) | 1 (1=0-19%) | 1 (1=0-19%) | 5 (5=80-100%) | 5 (5=80-100%) | 5 (5=80-100%) | 5 (5=80-100%) | 5 (5=80-100%) |  |  |  |  |  |  |  |  |  | 
Cc1cccnc1C(=O)Nc1c(OC(F)F)ccc(C(=O)Nc2nnnn2C)c1Cl [Compound 1.093] |  |  |  |  |  |  |  |  |  |  | 5 (5=80-100%) | 5 (5=80-100%) | 5 (5=80-100%) | 4 (4=60-79%) | 4 (4=60-79%) | 4 (4=60-79%) | 4 (4=60-79%) | 5 (5=80-100%) | 4 (4=60-79%) | 4 (4=60-79%)
Cn1nnnc1NC(=O)c1ccc(OC(F)F)c(NC(=O)c2ncccc2F)c1Cl [Compound 1.100] |  |  |  |  |  |  |  |  |  |  | 5 (5=80-100%) | 5 (5=80-100%) | 1 (1=0-19%) | 3 (3=40-59%) | 2 (2=20-39%) | 4 (4=60-79%) | 4 (4=60-79%) | 4 (4=60-79%) | 4 (4=60-79%) | 4 (4=60-79%)
CC(C)C(=O)Nc1c(OC(F)F)ccc(C(=O)Nc2nnnn2C)c1Cl [Compound 1.020] |  |  |  |  |  |  |  |  |  |  | 5 (5=80-100%) | 5 (5=80-100%) | 5 (5=80-100%) | 5 (5=80-100%) | 5 (5=80-100%) | 5 (5=80-100%) | 5 (5=80-100%) | 5 (5=80-100%) | 5 (5=80-100%) | 5 (5=80-100%)
CCn1nnnc1NC(=O)c1ccc(OC(F)(F)F)c(NC(=O)C(C)C)c1Cl [Compound 1.118] |  |  |  |  |  |  |  |  |  |  | 4 (4=60-79%) | 4 (4=60-79%) | 5 (5=80-100%) | 4 (4=60-79%) | 2 (2=20-39%) | 4 (4=60-79%) | 4 (4=60-79%) | 4 (4=60-79%) | 4 (4=60-79%) | 4 (4=60-79%)
